From ChEMBL document CHEMBL1201862, “PubChem BioAssay data set” (2004)
The source made the active and inactive calls.

Tests used:
[1] = molecular target: COUP transcription factor 2 (Homo sapiens, UniProt P24468); experiment: Luminescence-based cell-based high throughput dose response assay to identify inhibitors of COUP-TFII (NR2F2).; format: functional;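 note: HEK293 cells transiently cotransfected with COUP-TFII expression vector and reporter; luciferase reporter luminescence driven by COUP-TFII from the pX2-168 reporter plasmid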
COUP transcription factor 2, sequence (P24468 whole entry): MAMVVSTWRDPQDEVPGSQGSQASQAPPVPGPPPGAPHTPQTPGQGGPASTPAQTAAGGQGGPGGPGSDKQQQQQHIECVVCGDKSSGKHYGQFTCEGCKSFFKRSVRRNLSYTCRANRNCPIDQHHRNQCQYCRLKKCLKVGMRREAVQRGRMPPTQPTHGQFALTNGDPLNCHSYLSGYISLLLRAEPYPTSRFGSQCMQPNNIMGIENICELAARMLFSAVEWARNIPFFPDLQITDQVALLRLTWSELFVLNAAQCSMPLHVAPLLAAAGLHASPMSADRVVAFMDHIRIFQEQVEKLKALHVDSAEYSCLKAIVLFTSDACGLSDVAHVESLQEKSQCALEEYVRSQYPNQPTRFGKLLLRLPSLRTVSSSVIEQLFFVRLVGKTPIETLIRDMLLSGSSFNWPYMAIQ

[2] = non-specific 3'UTR reporter inhibition in Clone20-Shn3RL – cell-based, Renilla luciferase, cherry-picked, counter-screen for Shn3 inhibitor project, dose response (AID 624133); format: functional
[3] = loss of viability in HepG2 cells – cell-based, CellTiter-Glo, cherry-picked, cytotoxicity control for Shn3 inhibitor project, dose response (AID 624134); format: functional
Protein Wnt-3a = Protein Wnt-3a (Mus musculus, UniProt P27467); experiment: antagonism of Wnt3a pathway luciferase reporter – Wnt-LIGHT cells, luminescence, selectivity assay for Gli-SUFU antagonist project, dose response (AID 651570); format: functional; conditions: read-out: IC50_Mean;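 note: Wnt-LIGHT reporter cells stimulated with conditioned medium from Wnt3a-producing cells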
Protein Wnt-3a, sequence (P27467 whole entry): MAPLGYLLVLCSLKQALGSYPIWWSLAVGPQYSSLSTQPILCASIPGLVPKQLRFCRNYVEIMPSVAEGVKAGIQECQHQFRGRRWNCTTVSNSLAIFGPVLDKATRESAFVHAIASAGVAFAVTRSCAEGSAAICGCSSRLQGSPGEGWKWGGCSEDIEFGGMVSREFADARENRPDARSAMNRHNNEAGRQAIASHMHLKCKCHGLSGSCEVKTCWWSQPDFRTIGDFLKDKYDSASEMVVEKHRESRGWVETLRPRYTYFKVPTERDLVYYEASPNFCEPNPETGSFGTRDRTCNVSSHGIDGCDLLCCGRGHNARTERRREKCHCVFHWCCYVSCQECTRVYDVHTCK

[4] = OVCAR8 cell viability loss – plate reader, dry powder samples, PAX8 project, dose response (AID 743197); format: functional, cell-based; conditions: OVCAR-8
[5] = IGROV1 cell killing – plate reader, dry powder samples, PAX8 inhibitor project, dose response (AID 743043); format: functional, cell-based; conditions: IGROV-1
Paired box protein Pax-8 = Paired box protein Pax-8 (Homo sapiens, UniProt Q06710); experiment: PAX8 transcriptional activity inhibition in RMG-I – RMG-I cells, luciferase, cherry-pick, dose response (AID 687027); format: functional, cell-based;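 note: luciferase reporter driven by Pax8 target thyroperoxidase promoter measured by SteadyGlo luminescence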
Paired box protein Pax-8, sequence (Q06710 whole entry): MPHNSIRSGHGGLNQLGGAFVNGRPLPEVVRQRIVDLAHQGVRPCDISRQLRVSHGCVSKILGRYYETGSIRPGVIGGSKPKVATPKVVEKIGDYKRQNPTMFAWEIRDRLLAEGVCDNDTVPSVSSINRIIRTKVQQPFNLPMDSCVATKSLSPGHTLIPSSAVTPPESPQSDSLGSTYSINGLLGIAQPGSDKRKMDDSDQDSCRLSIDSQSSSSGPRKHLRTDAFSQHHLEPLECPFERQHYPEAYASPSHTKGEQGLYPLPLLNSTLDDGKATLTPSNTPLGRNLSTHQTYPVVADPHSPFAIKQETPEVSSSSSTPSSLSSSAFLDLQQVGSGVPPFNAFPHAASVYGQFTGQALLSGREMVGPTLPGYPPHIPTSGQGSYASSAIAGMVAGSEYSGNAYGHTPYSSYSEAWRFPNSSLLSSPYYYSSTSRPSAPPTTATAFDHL

Nonstructural protein 1 = Nonstructural protein 1 (Influenza A virus, UniProt Q194T2); format: functional, Influenza A virus (A/California/07/2009(H1N1))
Nonstructural protein 1, sequence (Q194T2 whole entry): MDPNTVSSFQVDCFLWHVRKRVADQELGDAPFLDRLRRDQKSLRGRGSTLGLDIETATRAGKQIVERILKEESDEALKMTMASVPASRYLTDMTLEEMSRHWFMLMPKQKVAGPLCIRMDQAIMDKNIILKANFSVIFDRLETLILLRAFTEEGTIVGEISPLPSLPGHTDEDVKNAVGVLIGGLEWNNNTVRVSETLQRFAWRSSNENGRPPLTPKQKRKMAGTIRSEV

[6] = molecular target: 1-phosphatidylinositol 4,5-bisphosphate phosphodiesterase beta-3 (Homo sapiens, UniProt Q01970); experiment: Fluorescence-based biochemical high throughput dose response assay to identify inhibitors of phospholipase C isozymes (PLC-B3).
1-phosphatidylinositol 4,5-bisphosphate phosphodiesterase beta-3, sequence (Q01970 whole entry): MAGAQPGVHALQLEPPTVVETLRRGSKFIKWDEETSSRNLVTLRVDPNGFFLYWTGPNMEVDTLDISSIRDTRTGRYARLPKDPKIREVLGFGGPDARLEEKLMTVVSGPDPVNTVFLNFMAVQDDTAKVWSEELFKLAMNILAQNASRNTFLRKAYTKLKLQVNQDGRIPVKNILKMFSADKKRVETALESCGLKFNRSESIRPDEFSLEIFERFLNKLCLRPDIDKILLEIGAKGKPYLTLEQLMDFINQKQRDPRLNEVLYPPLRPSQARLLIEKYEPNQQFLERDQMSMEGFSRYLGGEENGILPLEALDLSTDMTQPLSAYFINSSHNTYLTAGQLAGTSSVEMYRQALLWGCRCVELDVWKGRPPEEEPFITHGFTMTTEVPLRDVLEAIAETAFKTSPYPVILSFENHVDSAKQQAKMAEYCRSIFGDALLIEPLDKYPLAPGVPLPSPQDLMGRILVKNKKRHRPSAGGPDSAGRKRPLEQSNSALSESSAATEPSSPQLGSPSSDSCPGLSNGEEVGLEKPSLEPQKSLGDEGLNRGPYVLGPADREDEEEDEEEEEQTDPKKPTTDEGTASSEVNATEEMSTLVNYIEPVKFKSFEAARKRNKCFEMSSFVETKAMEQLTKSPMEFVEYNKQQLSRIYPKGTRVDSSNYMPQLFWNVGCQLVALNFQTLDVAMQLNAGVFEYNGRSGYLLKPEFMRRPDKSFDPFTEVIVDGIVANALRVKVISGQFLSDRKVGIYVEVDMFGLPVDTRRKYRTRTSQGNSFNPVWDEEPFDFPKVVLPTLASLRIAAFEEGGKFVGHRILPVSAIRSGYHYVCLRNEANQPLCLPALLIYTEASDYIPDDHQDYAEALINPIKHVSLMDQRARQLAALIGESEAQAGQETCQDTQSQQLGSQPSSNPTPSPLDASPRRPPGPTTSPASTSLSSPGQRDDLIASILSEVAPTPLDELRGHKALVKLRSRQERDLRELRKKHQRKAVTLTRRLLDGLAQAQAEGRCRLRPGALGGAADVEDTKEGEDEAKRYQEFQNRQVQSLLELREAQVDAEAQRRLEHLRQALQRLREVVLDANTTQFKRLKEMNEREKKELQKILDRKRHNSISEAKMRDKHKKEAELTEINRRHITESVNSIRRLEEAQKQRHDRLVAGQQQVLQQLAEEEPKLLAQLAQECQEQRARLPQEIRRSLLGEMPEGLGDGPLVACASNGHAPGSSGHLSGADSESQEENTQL

[7] = molecular target: 1-phosphatidylinositol 4,5-bisphosphate phosphodiesterase gamma-1 (Homo sapiens, UniProt P19174); experiment: Counterscreen for inhibitors of phospholipase C isozymes (PLC-B3): Fluorescence-based biochemical high throughput dose response assay to identify inhibitors of phospholipase C isozymes (PLC-gamma1).
1-phosphatidylinositol 4,5-bisphosphate phosphodiesterase gamma-1, sequence (P19174 whole entry): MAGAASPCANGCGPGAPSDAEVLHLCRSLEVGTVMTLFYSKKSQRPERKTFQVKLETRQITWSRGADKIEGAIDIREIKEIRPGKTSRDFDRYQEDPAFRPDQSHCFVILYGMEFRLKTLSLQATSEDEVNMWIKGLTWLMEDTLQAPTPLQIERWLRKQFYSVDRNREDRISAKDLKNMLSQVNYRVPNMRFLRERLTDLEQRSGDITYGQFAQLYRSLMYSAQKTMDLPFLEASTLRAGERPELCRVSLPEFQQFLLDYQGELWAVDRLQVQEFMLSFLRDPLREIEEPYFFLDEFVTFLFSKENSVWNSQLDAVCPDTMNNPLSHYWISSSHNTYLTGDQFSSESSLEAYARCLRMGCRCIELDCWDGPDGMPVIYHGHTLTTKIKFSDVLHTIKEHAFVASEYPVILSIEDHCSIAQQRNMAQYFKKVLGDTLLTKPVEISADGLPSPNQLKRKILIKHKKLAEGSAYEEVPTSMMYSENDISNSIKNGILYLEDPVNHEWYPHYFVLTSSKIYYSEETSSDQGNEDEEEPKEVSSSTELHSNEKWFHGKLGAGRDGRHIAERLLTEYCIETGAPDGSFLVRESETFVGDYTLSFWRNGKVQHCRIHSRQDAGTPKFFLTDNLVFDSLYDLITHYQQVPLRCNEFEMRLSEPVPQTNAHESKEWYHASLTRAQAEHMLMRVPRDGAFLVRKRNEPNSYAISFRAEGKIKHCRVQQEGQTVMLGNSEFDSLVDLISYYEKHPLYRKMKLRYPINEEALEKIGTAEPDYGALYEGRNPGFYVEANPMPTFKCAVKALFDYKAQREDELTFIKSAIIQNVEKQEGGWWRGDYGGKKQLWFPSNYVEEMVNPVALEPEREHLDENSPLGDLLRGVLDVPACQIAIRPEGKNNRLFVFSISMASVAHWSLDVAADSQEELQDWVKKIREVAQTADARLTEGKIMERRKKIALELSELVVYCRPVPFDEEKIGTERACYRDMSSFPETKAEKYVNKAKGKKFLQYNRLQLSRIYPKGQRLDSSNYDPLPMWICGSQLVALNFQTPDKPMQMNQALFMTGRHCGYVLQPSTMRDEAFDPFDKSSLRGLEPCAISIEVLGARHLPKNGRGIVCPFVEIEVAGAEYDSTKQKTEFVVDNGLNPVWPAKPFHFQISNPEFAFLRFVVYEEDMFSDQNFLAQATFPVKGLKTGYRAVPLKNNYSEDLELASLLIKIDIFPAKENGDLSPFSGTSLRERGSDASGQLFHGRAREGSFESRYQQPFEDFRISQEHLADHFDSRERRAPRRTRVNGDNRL

CC[C@@H](O)C[C@H]1CCC[C@@]2(C[C@@H]3OC(=O)/C=C/[C@@](C)(O)[C@@H](O)[C@H](C)[C@@H](O)[C@H](OC4CCC(N(C)C)C(C)O4)[C@@H](O)[C@](C)(O)CCCCC/C=C/[C@@H]4CC(C)(C)O[C@@]4(O)C[C@H](O2)[C@H]3C)O1 (stereo partly drawn)
IC50 [1]: > 0.013 µM (active) | AC50 [2]: < 0.26 µM (active) | AC50 [3]: 20.1 µM (active) | IC50 (Protein Wnt-3a): 0.0061 µM (active)

C[C@@H]1CN([C@@H](C)CO)C(=O)c2cc(NC(=O)Cc3ccccc3)ccc2O[C@@H](C)CCCCO[C@H]1CN(C)Cc1ccc(C(F)(F)F)cc1
AC50 [4]: > 70 µM (inactive) | AC50 [5]: 44.6 µM (active) | AC50 (Paired box protein Pax-8): 9.1 µM (active)

C[C@H]1CCCCO[C@H](CN(C)C(=O)NC2CCCCC2)[C@@H](C)CN([C@@H](C)CO)C(=O)c2cc(NC(=O)Nc3ccc(C(F)(F)F)cc3)ccc2O1
AC50 [4]: 67.2 µM (active) | AC50 [5]: 47.5 µM (active) | AC50 (Paired box protein Pax-8): 8.03 µM (active)

Cc1ccc(S(=O)(=O)NC2=C(N3CCN(c4ccccc4F)CC3)C(=O)c3ccccc3C2=O)cc1
IC50 (Nonstructural protein 1): 32.5 µM (active) | IC50 [6]: > 122 µM (inactive) | IC50 [7]: > 122 µM (inactive)
